Data from publication PMC9813109, “Phase I dose-escalation study of milademetan in patients with relapsed or refractory acute myeloid leukemia” (International Journal of Hematology, 2022).

Experiments:
Platelet = test system: Platelet; design: species or system human; settings: in vivo
Source text: Patients were followed up until the AEs resolved.

[1] = test system: macrophage inhibitory cytokine-1 (MIC-1) serum levels; test: Serum MIC-1 (GDF-15) ELISA, pharmacodynamic biomarker; type: in vivo, human
Description: To investigate biomarkers that could be potentially linked to the milademetan mechanism of action, blood, bone marrow, and serum were collected. TP53 tumor genotyping was done using bone marrow and blood samples collected before milademetan administration and at the end of treatment. TP53 genomic status was determined using a targeted next-generation sequencing following the reference human genome sequence (hg19). QIAamp® DSP FFPE Kit (Qiagen, Hilden, Germany) was used to extract DNA. Quantified DNA samples were processed by polymerase chain reaction (PCR) amplification using custom primer sets of all 11 TP53 exons. Libraries were prepared from purified PCR pools using Illumina TruSeq kits™ (Illumina, San Diego, CA, USA) and analyzed using the MiSeq platform™ (Illumina). Raw reads were aligned against hg19, and data sets were analyzed using a program developed in-house for genomic aberrations (i.e., mutations, deletions, and insertions) detection. Quantikine® ELISA Human GDF-15 immunoassay (R&D Systems, Inc., Minneapolis, MN, USA), employing the quantitative sandwich enzyme immunoassay technique, was used to determine serum MIC-1, also known as growth and differentiation factor-15 (GDF-15). […] In addition to descriptive statistics, the geometric mean and geometric coefficient of variation were used to describe the PK parameters. All analyses were conducted using SAS® software (version 9.4; SAS Institute Inc., Cary, NC, USA). The time courses of mean plasma milademetan concentrations on days 1 and 14 of cycle 1 (linear scale) in the QD 14/28-day schedule were used for pharmacokinetic analysis. The best response was measured as CR, CRh, CRi, or PR. For efficacy analysis, a waterfall plot of the best percent change from baseline blast count in bone marrow aspirate on the QD 14/28-day schedule was drawn to assess the blast count reduction. In addition, line plots of individual serum MIC-1 levels were drawn in the QD 14/28-day schedule for the pharmacodynamics analysis set.

CC1(C)CCC2(CC1)N[C@@H](C(=O)N[C@@H]1CC[C@@H](C(N)=O)OC1)[C@H](c1ccnc(Cl)c1F)[C@]21C(=O)Nc2cc(Cl)ccc21 [milademetan]
Mean platelet count vs baseline (Platelet): decreased from the baseline in all cohorts | Mean serum MIC-1 levels vs baseline ([1]; all cohorts, after administration): increased from baseline in all cohorts | Peak MIC-1 levels, 120- and 160-mg cohorts vs 90-mg cohort ([1]; in vivo): tended to be higher | Time of peak serum MIC-1 level ([1]; most patients): day 8 or 14 of cycle 1
